The values that follow come from patent US20100331267A1, “USE OF CYCLOHEXANEHEXOL DERIVATIVES IN THE TREATMENT OF ALPHA-SYNUCLEINOPATHIES” (priority 2007, published 2010).

One assay relates to Aβ peptide fibrils. The settings on record: stated as previously shown; cited from earlier work.
For assay [1], the target named is T1, A53T mutant of α-synuclein (Homo sapiens, UniProt P37840, A53T).
T1 construct: made in house; host or cells: E. coli
Description: Negative stain electron microscopy of α-synuclein fibre formation. The class given is biochemical. Here is the method: α-Synuclein will be purified from E. coli expressing the native and the aggregation prone A53T mutant proteins via chromatography on a Q-sepharose column.[10, 12] Recombinant α-synuclein spontaneously aggregates into fibers upon incubation at high concentrations 2 mg/ml. To assay the α-synuclein aggregation the proteins will then be incubated at 37° C. (50 mM Tris, pH 7.5) with shaking in the presence and absence of the inositols in varying ratios from 1:1 to 1:100 protein:inositol. The products of these incubations will be evaluated with the biophysical techniques discussed below. Negative stain electron microscopy is an excellent tool to examine the gross morphology of the protein aggregates formed. Samples will be examined as a function of time and scyllo-inositol concentrations.

The next assay deals with T2, α-synuclein (Homo sapiens, UniProt P37840, A53T).
T2 construct: made in house; host or cells: E. coli
Description: Thioflavin T binding assay of α-synuclein aggregation. The class given is biochemical. The settings on record: α-synuclein 2 mg/ml, 24 hrs at 37° C., scyllo-inositol 1:20 ratio by weight. Here is the method:
α-Synuclein will be purified from E. coli expressing the native and the aggregation prone A53T mutant proteins via chromatography on a Q-sepharose column.[10, 12] Recombinant α-synuclein spontaneously aggregates into fibers upon incubation at high concentrations 2 mg/ml. To assay the α-synuclein aggregation the proteins will then be incubated at 37° C. (50 mM Tris, pH 7.5) with shaking in the presence and absence of the inositols in varying ratios from 1:1 to 1:100 protein:inositol. The products of these incubations will be evaluated with the biophysical techniques discussed below.
Fluorimetry. Fluorescent probes are exceptionally useful to follow the aggregation kinetics of proteins. Two fluorescent probes, Thioflavin T (ThT) and 1-Anilinonaphthalene-8-sulfonic acid (ANS) are the most commonly used probes for α-synuclein. […] Thus, the amyloid fibrils formed from the proteins used in these studies bind ThT and binding is monitored by an increase in fluorescence intensity. Oligomers other than the amyloid fibrils can also have significant β-sheet character and bind ThT. ANS binds to hydrophobic unstructured proteins and is complementary to ThT fluorescence assays. Upon binding in a hydrophobic environment ANS undergoes an increase in quantum yield and a blue shift in its fluorescence emission maximum.

Take `O[C@H]1[C@H](O)[C@@H](O)[C@H](O)[C@@H](O)[C@@H]1O` [scyllo-inositol]: in the assay on Aβ peptide fibrils, the “disaggregation of preformed Aβ peptide fibrils” value is “able to disaggregate preformed Aβ peptide fibrils”. Further, in assay [1] (A53T mutant, after 24 hours of incubation at 37° C., without compound: characteristic α-synuclein fibrils), the “aggregates produced (negative stain EM, FIG. 1)” value is listed as “a few thin fibrils with the majority of the visible protein being present as amorphous aggregates”. The “α-synuclein fibres formed (negative stain electron microscopy, FIG. 1 legend)” value in assay [1] (α-synuclein 2 mg/ml, scyllo-inositol 1:20 ratio by weight, 2 days at 37° C., alone: long mature fibres) is listed as “only small aggregates could be detected”. For the same molecule, the “Thioflavin T fluorescence (FIG. 2)” value on α-synuclein is “fluorescence increases upon short incubations with scyllo-inositol and the fluorescence decreases with time”.
